{"source": "paper PMC5471252", "about": "“Anti-leukemia activity of a Hsp70 inhibitor and its hybrid molecules” (Scientific Reports, 2017)", "key": {"[1]": {"target": "T1, ATPase domain (1-386 residues) of human Hsc70 (Homo sapiens, UniProt P11142)", "T1 construct": "pET28a-human Hsc70 ATPase domain (1-386 residues); inferred from the pET28a vector and nickel-column purification; made in house; host or cells: E. coli BL21 (DE3)", "T1 sequence (P11142 1-386)": "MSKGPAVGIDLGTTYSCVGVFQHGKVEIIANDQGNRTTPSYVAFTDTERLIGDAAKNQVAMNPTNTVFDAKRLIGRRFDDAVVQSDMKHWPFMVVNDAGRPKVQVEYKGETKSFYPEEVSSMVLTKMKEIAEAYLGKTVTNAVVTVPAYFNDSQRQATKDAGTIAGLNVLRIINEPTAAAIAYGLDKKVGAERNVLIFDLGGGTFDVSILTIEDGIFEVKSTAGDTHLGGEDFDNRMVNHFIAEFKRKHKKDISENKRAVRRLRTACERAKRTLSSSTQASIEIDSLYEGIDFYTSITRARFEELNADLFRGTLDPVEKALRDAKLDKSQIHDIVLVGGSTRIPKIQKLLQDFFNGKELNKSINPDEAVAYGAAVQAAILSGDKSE", "assay": "STD NMR competition with ATP-γ-S", "format": "binding", "details": "ATP-γ-S in place of ATP, Az phosphate salt form", "method": "However, the detailed mode of Az binding to the proteins has not been elucidated. To gain information about the molecular basis of Az binding to Hsp70 proteins, NMR studies were carried out on a complex of Az with an ATPase domain (1-386 residues) of human Hsc70. Saturation transfer difference (STD) NMR studies were conducted initially to obtain information on Az binding to the ATPase domain of Hsc70[30]. […] Next, we evaluated whether Az affects binding of ATP to the ATPase domain. For STD experiments, less hydrolytic ATP-γ-S was used in place of ATP.\nFor STD experiments, 10 μM of an ATPase domain of Hsc70, 1 mM of ATP-γ-S and Az (a phosphate salt form) were used. For competition studies between ATP-γ-S and Az, STD of the sample with 5 μM ATPase domain of Hsc70 and 500 μM ATP-γ-S was initially measured, and further titrated with Az up to 1 mM. The ratios of ATP-γ-S to Az were 1:0, 1:1, 1:1.5, and 1:2. All STD NMR spectra were obtained using 20 mM solutions of deuterated Tris buffer with 5% (v/v) DMSO-d6 (pD 7.2)."}, "[2]": {"tested_on": "AIF translocation in HL-60 and K562 cells", "assay": "AIF translocation to the nucleus (western blot, immunocytochemistry)", "format": "cell-based, human", "details": "24 h; 2 μM for Az-O3-GD", "description": "Apoptosis-inducing factor (AIF) is known to be translocated from the cytosol to the nucleus during caspase-independent apoptosis (Supplementary Fig. S8b)[39]. In addition, it is also known that Hsp70 interacts with AIF directly and this interacting event results in blocking translocation of AIF to the nucleus and, in turn, prevents caspase-independent apoptosis. Because of these phenomena, we tested if Az has an influence on AIF-mediated caspase-independent apoptosis. To probe this issue, HL-60 and K562 cells were exposed to Az and the levels of AIF in the cytosolic and nuclear fractions were then determined. AIF translocation to the nucleus was not observed in Az-treated cells, based on western blot analysis (Fig. 4d). Additional evidence to support this conclusion was obtained from immunocytochemical analysis of leukemia cells treated with Az (Fig. 4d).\nWestern blot analysis. […] peroxidase-conjugated goat anti-rabbit IgG (1:2000, Santa Cruz Bio Technology) and goat anti-mouse IgG (1:2000, Santa Cruz Bio Technology) were used as the secondary antibodies. The blots were developed by using a West-ZOL® plus Western Blot Detection System (Intron Biotechnology Inc., South Korea). Western blot signals were analyzed by using a G:BOX Chemi Fluorescent & Chemiluminescent Imaging System.\nImmunocytochemistry. […] Cell images were analyzed using the ZEN 2011 software."}, "[3]": {"tested_on": "human leukemia cells (HL-60, KG-1, THP-1, U937, Jurkat and K562 cells)", "assay": "MTT assay, all tested leukemia cells (summary statements)", "details": "Homo sapiens, 48 h, read-out: IC50 values, cytotoxic activities toward all the tested leukemia", "method": "To assess anti-leukemia activity of Az, several human leukemia cells (HL-60 cells, acute myeloid leukemia; Jurkat cells, acute T-lymphocytic leukemia; KG-1 cells, acute myeloid leukemia; U937 cells, acute myeloid leukemia; THP-1 cells, acute monocytic leukemia; K562 cells, chronic myeloid leukemia) were incubated with Az for 48 h. […] An MTT assay was then performed to measure cell viabilities.\nCells were exposed to each compound (a HCl salt form) at various concentrations for indicated time periods (24 or 48 h) in culture media. MTT assays were conducted according to known procedures. The absorbance at 570 nm was determined by employing a microplate reader (TECAN, Infinite® 200 PRO)."}}}
{"smiles": "COc1ccc(-c2nc(-c3cc(C(F)(F)F)cc(C(F)(F)F)c3)n(Cc3ccc(C(=O)NCCOCCOCCN)cc3)c2-c2ccc(OC)cc2)cc1", "note": "[Az, apoptozole]", "values": [{"measurement": "effect on binding of ATP to the ATPase domain", "setting": "[1]", "value": "blocks ATP binding"}, {"measurement": "AIF translocation to the nucleus", "setting": "[2]", "value": "not observed"}, {"measurement": "IC50", "setting": "[3]", "value": "2 to 5", "unit": "µM"}]}
